# ChEMBL document CHEMBL4507319 (2021)
# What was measured:
# Conditions in all cases: Compound concentration 1000.0 nM
# [1] = molecular target: T1, Mitogen-activated protein kinase kinase kinase 5 (Homo sapiens) (UniProt Q99683)
# T1 sequence (whole entry): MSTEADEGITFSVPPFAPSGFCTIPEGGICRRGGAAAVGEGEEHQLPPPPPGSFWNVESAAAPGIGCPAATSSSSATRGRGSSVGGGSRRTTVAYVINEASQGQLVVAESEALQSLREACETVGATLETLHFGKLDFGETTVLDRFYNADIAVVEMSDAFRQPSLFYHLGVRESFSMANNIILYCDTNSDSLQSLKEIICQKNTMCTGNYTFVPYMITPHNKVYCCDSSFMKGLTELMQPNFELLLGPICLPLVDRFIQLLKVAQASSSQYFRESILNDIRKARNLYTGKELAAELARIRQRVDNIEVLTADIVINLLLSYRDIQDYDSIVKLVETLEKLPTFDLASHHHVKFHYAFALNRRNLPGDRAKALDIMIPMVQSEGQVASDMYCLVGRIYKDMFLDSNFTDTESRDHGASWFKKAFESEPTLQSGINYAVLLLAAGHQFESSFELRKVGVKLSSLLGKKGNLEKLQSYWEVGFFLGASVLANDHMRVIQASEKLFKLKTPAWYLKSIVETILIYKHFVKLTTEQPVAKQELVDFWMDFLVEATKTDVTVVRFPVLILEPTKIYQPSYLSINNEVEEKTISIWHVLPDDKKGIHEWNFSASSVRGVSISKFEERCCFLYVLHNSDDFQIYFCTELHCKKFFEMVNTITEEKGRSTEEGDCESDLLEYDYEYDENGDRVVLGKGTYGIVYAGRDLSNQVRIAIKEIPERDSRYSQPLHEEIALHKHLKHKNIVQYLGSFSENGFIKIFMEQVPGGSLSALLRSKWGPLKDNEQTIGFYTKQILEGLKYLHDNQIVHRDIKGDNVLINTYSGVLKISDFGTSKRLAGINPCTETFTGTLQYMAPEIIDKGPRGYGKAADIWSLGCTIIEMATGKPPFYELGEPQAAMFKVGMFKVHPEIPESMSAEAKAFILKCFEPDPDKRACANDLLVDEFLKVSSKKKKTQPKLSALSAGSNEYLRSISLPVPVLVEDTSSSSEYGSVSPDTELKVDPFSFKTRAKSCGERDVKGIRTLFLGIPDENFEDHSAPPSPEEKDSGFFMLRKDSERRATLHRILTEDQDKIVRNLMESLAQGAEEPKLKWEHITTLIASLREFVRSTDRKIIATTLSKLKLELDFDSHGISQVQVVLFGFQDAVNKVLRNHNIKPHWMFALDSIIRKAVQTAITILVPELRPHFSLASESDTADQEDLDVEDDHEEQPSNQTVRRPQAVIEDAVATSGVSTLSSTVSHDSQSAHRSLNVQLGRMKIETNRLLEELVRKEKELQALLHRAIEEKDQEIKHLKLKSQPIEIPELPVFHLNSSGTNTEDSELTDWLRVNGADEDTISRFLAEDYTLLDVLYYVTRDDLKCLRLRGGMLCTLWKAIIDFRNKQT
# [2] = molecular target: Serine/threonine-protein kinase Nek4 (Homo sapiens) (UniProt P51957)
# [3] = system: Phosphatidylinositol 4,5-bisphosphate 3-kinase catalytic subunit alpha isoform (Homo sapiens), P42336 [M1043I]
# [4] = molecular target: T2, Cytoplasmic tyrosine-protein kinase BMX (Homo sapiens) (UniProt P51813)
# T2 sequence (whole entry): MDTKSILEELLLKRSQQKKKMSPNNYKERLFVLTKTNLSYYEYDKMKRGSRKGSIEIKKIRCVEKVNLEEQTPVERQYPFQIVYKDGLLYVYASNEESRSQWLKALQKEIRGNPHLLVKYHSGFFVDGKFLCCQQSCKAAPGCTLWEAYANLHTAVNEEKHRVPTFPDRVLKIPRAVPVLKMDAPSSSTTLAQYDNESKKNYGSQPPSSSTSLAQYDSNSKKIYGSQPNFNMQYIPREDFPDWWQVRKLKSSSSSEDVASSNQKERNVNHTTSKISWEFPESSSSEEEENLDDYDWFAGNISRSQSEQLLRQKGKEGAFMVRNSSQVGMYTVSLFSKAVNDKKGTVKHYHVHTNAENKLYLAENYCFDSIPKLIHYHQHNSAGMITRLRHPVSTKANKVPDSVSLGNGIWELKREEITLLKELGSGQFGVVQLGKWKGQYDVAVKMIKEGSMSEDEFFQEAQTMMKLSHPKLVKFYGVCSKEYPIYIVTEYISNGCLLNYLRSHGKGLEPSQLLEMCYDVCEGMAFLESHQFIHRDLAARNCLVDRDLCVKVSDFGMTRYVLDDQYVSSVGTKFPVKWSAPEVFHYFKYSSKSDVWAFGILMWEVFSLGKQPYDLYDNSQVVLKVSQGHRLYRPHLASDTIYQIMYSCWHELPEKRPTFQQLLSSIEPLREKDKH
# [5] = system: Receptor-type tyrosine-protein kinase FLT3 (Homo sapiens), P36888 [UNDEFINED MUTATION]
# Receptor-type tyrosine-protein kinase FLT3 (Homo sapiens), P36888 [UNDEFINED MUTATION], sequence (P36888 whole entry, looked up, change not shown): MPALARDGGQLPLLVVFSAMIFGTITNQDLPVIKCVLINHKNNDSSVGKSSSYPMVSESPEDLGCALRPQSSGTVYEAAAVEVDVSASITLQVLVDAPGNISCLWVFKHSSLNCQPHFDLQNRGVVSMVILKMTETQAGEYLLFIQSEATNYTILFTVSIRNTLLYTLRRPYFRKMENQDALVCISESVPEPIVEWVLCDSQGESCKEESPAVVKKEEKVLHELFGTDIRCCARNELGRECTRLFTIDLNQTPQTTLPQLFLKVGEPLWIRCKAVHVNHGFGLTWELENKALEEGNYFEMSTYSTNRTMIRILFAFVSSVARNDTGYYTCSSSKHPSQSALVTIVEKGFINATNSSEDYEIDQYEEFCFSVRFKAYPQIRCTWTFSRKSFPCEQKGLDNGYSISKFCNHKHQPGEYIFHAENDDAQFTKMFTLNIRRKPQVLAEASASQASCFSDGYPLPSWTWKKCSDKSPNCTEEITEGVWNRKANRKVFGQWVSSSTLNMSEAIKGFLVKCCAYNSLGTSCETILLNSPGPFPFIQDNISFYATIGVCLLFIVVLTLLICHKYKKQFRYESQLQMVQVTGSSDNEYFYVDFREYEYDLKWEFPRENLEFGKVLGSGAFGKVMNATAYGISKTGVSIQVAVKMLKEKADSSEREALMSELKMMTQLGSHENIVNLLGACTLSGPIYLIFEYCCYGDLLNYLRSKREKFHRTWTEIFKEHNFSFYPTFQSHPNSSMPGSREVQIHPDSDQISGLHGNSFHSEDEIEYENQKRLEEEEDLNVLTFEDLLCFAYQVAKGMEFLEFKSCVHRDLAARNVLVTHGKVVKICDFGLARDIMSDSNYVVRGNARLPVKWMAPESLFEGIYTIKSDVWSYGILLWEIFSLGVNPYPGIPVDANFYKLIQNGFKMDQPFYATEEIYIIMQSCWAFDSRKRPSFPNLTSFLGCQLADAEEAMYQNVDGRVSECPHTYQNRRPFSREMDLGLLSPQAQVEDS
# Phosphatidylinositol 4,5-bisphosphate 3-kinase catalytic subunit alpha isoform (Homo sapiens), P42336 [M1043I], sequence (P42336 whole entry M1043I, canonical isoform): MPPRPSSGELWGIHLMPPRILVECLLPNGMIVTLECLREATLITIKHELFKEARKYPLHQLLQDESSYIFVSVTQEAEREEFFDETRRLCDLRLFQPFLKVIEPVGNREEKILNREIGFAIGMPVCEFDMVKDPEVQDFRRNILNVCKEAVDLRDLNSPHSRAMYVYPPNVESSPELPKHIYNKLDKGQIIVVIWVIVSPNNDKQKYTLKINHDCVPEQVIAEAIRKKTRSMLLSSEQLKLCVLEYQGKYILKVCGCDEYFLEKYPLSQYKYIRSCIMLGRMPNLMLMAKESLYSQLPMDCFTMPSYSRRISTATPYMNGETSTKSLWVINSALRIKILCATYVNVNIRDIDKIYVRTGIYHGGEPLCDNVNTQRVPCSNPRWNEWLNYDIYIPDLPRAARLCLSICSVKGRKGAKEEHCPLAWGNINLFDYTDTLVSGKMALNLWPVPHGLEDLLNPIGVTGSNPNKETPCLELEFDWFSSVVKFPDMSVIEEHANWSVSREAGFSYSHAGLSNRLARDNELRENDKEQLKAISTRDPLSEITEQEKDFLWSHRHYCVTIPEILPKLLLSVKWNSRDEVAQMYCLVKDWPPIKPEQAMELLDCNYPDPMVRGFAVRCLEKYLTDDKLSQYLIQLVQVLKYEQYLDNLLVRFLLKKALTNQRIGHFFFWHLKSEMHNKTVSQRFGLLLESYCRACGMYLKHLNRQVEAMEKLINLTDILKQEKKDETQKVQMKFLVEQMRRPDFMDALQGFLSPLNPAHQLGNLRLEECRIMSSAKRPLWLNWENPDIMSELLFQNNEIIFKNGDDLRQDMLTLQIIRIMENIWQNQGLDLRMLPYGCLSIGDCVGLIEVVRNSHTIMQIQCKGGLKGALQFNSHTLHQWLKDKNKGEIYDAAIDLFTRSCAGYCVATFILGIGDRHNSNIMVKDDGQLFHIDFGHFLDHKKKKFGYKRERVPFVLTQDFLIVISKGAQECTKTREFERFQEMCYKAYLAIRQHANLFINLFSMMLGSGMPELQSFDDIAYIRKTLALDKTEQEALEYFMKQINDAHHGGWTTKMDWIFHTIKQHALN
# Serine/threonine-protein kinase Nek4 (Homo sapiens), sequence (P51957 whole entry, looked up, canonical isoform): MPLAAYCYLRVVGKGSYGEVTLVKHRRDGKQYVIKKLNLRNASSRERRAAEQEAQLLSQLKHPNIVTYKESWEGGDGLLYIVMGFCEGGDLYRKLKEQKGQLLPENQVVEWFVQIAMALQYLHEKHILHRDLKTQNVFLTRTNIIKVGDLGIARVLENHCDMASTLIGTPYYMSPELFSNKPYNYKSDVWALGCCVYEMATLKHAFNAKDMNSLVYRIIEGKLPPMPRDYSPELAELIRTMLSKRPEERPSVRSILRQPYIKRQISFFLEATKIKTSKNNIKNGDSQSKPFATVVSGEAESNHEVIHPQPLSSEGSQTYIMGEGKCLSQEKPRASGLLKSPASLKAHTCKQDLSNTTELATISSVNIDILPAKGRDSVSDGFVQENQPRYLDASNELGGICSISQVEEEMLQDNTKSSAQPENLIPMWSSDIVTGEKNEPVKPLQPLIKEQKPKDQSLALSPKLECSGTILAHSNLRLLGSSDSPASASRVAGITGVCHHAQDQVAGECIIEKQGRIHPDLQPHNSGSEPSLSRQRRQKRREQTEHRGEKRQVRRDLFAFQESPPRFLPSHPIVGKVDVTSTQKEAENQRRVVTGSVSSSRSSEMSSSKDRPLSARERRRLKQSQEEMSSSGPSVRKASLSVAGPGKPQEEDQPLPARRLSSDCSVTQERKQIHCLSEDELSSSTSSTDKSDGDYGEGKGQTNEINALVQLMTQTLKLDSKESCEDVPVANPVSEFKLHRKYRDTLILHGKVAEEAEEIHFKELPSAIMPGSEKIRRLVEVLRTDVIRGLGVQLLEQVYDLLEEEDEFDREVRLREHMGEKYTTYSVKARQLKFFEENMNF
SMILES,residual activity [1],residual activity [2],residual activity [3],residual activity [4],residual activity [5]
CC1=C(C#N)C(c2ccc3c(c2)c(NC(=O)c2ccccc2C)nn3C)C(C#N)=C(C)N1 [BAY-974],89%,100%,100%,85%,64%
CCc1ccccc1C(=O)Nc1n[nH]c2c(C)c(F)c(C3C(C#N)=C(C)N(C)C(C)=C3C#N)cc12 [BAY-3827],100%,100%,75%,96%,11%
